ChEMBL document CHEMBL5705893, “Targeting the mitotic checkpoint for cancer therapy with NMS-P715, an inhibitor of MPS1 kinase” (Cancer Res, 2010)

Legend:
[1] = Antiproliferative activity against human CL-11 cells assessed as inhibition of cell growth incubated for 72 hrs by celltiter-glo assay; type: functional, cell-based; settings: CL-11, 72 h
SNB-75 = assay: Antiproliferative activity against human SNB-75 cells assessed as inhibition of cell growth incubated for 72 hrs by celltiter-glo assay; type: functional, cell-based; settings: SNB-75, 72 h
[2] = molecular target: RAC-alpha serine/threonine-protein kinase (Homo sapiens, UniProt P31749); assay: Inhibition of recombinant AKT1 (unknown origin)
Sequence of RAC-alpha serine/threonine-protein kinase (P31749 whole entry): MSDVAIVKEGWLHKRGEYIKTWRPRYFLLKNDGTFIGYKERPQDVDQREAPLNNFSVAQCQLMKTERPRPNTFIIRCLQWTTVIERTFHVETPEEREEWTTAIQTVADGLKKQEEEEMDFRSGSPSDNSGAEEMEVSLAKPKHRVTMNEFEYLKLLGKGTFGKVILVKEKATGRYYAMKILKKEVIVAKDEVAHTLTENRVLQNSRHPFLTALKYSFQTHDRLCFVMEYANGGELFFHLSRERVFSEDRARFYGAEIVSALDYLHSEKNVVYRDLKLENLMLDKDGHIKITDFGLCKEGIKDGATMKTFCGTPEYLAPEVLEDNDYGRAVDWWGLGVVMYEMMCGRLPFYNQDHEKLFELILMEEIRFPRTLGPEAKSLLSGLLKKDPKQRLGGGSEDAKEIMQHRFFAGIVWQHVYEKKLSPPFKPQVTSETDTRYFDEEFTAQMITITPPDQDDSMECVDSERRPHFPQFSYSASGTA

[3] = Half life in Athymic nu-nu mouse at 100 mg/kg, po measured upto 24 hrs by LC-MS/MS analysis; type: ADME, organism-based; settings: in vivo
SK-MEL-2 = assay: Antiproliferative activity against human SK-MEL-2 cells assessed as inhibition of cell growth incubated for 72 hrs by celltiter-glo assay; type: functional, cell-based; settings: SK-MEL-2, 72 h
ACHN = assay: Antiproliferative activity against human ACHN cells assessed as inhibition of cell growth incubated for 72 hrs by celltiter-glo assay; type: functional, cell-based
[4] = molecular target: Vascular endothelial growth factor receptor 3 (Homo sapiens, UniProt P35916); assay: Inhibition of recombinant VEGFR3 (unknown origin)
Sequence of Vascular endothelial growth factor receptor 3 (P35916 whole entry): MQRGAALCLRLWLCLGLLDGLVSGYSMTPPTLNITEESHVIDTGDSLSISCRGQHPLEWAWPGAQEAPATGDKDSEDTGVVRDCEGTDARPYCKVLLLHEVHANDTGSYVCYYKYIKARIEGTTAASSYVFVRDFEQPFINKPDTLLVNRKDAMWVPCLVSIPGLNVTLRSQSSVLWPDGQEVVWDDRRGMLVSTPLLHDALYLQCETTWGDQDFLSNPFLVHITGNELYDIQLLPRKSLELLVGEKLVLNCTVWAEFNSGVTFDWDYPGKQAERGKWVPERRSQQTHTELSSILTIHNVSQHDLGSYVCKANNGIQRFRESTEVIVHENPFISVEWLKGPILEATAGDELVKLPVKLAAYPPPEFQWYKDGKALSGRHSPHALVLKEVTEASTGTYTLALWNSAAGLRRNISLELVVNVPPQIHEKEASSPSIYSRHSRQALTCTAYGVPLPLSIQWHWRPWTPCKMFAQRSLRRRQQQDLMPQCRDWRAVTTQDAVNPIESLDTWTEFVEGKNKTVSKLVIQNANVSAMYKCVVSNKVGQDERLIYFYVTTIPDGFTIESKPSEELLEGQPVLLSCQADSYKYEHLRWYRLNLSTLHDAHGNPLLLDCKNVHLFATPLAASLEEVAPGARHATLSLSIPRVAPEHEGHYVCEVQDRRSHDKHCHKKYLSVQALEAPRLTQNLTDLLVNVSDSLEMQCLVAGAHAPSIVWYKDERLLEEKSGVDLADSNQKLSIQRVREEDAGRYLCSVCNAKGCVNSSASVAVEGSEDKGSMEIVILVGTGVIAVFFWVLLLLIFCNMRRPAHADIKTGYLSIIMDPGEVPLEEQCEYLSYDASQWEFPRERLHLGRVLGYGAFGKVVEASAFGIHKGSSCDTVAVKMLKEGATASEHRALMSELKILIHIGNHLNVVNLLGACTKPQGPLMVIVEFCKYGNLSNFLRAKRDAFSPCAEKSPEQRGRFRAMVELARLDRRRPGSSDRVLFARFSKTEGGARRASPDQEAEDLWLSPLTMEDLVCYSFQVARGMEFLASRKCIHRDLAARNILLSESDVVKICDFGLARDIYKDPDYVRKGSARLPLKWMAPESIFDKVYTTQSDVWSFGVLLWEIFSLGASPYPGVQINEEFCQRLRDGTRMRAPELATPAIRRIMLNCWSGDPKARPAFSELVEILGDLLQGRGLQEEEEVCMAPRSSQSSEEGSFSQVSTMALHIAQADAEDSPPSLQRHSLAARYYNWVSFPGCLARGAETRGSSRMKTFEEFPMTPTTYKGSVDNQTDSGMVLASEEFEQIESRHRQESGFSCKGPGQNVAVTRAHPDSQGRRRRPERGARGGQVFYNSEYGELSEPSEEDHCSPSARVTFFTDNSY

[5] = AUC in Athymic nu-nu mouse at 10 mg/kg, iv measured upto 24 hrs by LC-MS/MS analysis; type: ADME, organism-based; settings: in vivo
OPM-2 = assay: Antiproliferative activity against human OPM-2 cells assessed as inhibition of cell growth incubated for 72 hrs by celltiter-glo assay; type: functional, cell-based; settings: OPM-2, 72 h
[6] = molecular target: Serine/threonine-protein kinase Chk1 (Homo sapiens, UniProt O14757); assay: Inhibition of recombinant CHK1 (unknown origin)
Sequence of Serine/threonine-protein kinase Chk1 (O14757 whole entry): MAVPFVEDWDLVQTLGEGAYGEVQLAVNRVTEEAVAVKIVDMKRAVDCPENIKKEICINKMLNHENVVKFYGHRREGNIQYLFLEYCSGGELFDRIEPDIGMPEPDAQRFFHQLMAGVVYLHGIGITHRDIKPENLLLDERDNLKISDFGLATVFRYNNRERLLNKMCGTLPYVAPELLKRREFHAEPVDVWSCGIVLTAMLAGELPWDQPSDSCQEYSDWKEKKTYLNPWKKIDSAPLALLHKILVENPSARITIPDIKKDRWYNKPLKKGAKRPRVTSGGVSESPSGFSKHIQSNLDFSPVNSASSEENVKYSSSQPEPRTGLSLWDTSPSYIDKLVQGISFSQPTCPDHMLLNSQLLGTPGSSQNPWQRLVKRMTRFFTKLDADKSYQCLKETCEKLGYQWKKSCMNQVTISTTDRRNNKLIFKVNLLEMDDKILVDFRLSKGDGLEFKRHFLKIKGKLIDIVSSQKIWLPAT

MIA PaCa-2 = assay: Antiproliferative activity against human MIA PaCa-2 cells assessed as inhibition of cell growth incubated for 72 hrs by celltiter-glo assay; type: functional, cell-based; settings: MIA PaCa-2, 72 h
[7] = molecular target: Proto-oncogene tyrosine-protein kinase receptor Ret (Homo sapiens, UniProt P07949); assay: Inhibition of recombinant RET (unknown origin)
Sequence of Proto-oncogene tyrosine-protein kinase receptor Ret (P07949 whole entry): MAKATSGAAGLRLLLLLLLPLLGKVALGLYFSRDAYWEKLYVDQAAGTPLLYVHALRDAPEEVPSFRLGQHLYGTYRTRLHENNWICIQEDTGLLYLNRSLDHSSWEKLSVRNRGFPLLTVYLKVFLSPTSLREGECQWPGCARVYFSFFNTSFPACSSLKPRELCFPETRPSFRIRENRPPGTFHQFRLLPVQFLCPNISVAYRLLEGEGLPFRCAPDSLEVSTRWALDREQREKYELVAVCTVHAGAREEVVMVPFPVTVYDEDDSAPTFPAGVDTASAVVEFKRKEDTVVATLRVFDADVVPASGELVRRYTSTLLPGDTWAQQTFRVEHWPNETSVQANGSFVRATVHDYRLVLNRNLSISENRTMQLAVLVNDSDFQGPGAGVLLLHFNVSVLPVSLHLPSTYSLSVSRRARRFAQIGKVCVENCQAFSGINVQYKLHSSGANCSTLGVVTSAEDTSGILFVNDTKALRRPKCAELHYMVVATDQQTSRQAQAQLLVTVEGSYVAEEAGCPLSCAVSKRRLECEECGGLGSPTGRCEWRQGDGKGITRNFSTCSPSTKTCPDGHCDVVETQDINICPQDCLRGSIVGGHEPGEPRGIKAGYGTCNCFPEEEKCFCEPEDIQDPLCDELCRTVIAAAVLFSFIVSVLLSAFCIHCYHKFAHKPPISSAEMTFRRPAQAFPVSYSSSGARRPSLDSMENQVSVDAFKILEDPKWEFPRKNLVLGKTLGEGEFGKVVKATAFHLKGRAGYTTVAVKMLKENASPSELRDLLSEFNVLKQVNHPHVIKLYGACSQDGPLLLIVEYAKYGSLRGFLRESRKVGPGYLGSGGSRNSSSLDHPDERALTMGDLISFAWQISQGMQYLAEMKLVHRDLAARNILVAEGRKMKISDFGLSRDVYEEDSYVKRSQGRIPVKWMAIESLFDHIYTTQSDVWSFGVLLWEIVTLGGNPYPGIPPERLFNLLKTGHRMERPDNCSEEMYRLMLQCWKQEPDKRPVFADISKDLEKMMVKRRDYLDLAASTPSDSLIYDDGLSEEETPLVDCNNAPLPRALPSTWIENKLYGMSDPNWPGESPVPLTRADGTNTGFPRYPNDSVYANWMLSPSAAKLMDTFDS

[8] = AUC in Athymic nu-nu mouse at 10 mg/kg, po measured upto 24 hrs by LC-MS/MS analysis; type: ADME, organism-based; settings: in vivo
NCI-H889 = assay: Antiproliferative activity against human NCI-H889 cells assessed as inhibition of cell growth incubated for 72 hrs by celltiter-glo assay; type: functional, cell-based; settings: NCI-H889, 72 h
[9] = molecular target: Vascular endothelial growth factor receptor 2 (Homo sapiens, UniProt P35968); assay: Inhibition of recombinant VEGFR2 (unknown origin)
Sequence of Vascular endothelial growth factor receptor 2 (P35968 whole entry): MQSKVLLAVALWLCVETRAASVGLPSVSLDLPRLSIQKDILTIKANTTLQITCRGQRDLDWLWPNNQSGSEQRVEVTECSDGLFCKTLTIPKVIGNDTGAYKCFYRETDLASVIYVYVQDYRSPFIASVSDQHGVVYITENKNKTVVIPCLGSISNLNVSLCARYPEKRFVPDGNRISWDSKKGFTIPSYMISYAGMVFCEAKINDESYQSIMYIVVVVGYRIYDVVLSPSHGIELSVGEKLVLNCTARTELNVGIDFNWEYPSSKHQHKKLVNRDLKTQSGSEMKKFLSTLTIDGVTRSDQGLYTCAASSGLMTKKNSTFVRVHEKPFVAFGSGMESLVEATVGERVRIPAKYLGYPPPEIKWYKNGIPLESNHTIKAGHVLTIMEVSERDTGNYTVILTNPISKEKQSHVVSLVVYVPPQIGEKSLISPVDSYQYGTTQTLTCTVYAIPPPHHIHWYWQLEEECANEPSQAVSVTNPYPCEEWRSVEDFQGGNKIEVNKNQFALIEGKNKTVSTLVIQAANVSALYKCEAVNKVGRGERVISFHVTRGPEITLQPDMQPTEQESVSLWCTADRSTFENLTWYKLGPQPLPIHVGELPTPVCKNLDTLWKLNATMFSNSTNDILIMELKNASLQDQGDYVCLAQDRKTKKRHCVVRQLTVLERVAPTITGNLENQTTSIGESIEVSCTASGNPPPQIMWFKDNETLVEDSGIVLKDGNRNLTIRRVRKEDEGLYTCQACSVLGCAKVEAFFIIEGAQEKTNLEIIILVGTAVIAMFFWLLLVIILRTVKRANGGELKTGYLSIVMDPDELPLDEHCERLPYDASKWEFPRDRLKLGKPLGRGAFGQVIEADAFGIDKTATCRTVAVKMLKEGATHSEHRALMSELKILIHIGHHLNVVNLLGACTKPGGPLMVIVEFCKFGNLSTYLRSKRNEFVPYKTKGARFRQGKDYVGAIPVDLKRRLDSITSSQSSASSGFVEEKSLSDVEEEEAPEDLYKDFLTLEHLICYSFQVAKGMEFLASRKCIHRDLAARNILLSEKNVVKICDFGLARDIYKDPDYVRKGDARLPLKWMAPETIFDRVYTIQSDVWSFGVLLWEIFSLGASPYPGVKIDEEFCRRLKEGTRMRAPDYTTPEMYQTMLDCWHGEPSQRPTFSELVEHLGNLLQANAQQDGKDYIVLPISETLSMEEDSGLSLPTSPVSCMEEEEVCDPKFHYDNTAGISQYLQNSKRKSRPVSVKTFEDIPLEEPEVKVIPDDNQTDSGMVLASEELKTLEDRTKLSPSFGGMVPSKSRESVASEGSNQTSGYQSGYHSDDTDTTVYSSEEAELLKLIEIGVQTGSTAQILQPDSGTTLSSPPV

- IC50 [2]: > 10 µM
- half-life [3]: 16.8 h
- IC50 (SK-MEL-2): 1.49 µM
- IC50 (ACHN): 0.015 µM
- IC50 [4]: > 10 µM
- AUC at 24 h [5]: 22.4 µM·h
- IC50 [6]: > 10 µM
- IC50 (MIA PaCa-2): 2.55 µM
- IC50 [7]: > 10 µM
- AUC at 24 h [8]: 8.66 µM·h
- IC50 (NCI-H889): 1.26 µM
- IC50 [9]: > 10 µM
SMILES: CCc1cccc(CC)c1NC(=O)c1nn(C)c2c1CCc1cnc(Nc3ccc(C(=O)NC4CCN(C)CC4)cc3OC(F)(F)F)nc1-2
- IC50 [1]: 1.32 µM
- IC50 (SNB-75): 2.2 µM
- IC50 (OPM-2): 2.31 µM
